Consider 26 compounds from patent US20160016907A1, “PYRIDINE DERIVATIVES AS MUSCARINIC M1 RECEPTOR POSITIVE ALLOSTERIC MODULATORS” (PFIZER INC., priority 2014, published 2016).

SMILES strings stand for the structures. Counter-ions that a name gives are not always drawn.

The target in the test is T1, human M1 muscarinic acetylcholine receptors (Homo sapiens, UniProt P11229).
T1 sequence (P11229 1-460): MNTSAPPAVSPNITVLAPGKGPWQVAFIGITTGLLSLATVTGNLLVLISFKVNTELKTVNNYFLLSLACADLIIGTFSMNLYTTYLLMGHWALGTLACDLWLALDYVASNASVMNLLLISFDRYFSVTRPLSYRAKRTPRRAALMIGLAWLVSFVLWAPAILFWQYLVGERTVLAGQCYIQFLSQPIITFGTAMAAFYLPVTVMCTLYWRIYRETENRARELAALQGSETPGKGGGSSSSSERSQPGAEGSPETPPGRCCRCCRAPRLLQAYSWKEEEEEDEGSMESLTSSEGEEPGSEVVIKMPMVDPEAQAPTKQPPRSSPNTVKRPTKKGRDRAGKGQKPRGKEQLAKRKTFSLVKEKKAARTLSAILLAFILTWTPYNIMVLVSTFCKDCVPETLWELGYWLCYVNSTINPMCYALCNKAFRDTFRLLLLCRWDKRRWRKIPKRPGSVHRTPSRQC
The test can be described thus: M1 FLIPR assay (PAM, intracellular calcium). The class given is cell-based. Particulars: potentiation of EC10-EC30 acetylcholine, values marked a: geometric mean of ≧7 determinations, read-out: M1 PAM Inflection Point (μM) Geometric mean of 2-6 determinations (unless otherwise indicated). As to the method:
This assay was designed to select and characterize compounds that affect the activity of human M1 muscarinic acetylcholine receptors (Similar M1 PAM FLIPR assays can be found, for example, at U.S. Pat. No. 8,664,234). Human M1 receptors were stably expressed in Chinese hamster ovary (CHO) cells (HD Bioscience). The effect of test compounds on intracellular calcium was measured on an FLIPR Tetra (Molecular Devices) using the Fluo-8, AM calcium dye (Molecular Probes) with a red dye quenching agent (Sigma).
CHO cells expressing hM1 cells had been previously cultured and frozen in assay ready vials. Cell vials were thawed, then plated at a density of 10,000 cells per well in a 384 well black wall, clear bottom plate (Greiner #781090) and incubated overnight at 37 degrees C. with 5% CO2. Cells were grown and plated in F12 nutrient media (Gibco BRL #21700-075) supplemented with 10% FBS (Hyclone #CH30160.03) and Pen/Strep (Gibco #15070-063).
After overnight incubation, cell plates were removed from the incubator and the growth media was discarded and replaced with loading solution containing the following: 2 μM Fluo-8-AM (Molecular Probes #F14242), 2 mM Probenecid (Sigma #P8761), lx Acid Red 1 (Sigma #210633), in HBSS buffer containing (grams/L): 0.1 CaCl2, 0.1 MgCl2*6H2O, 0.049 MgSO4, 0.4 KCl, 0.06 KH2PO4, 8.06 NaCl, 0.12 Na2HPO4*12H2O, 1.1 D-glucose*H2O, 0.35 NaHCO3, 4.766 HEPES, pH 7.4. The plate was incubated in the loading solution at 37 degrees C. in the dark for 1 hour.
Test compounds were initially prepared as 100% DMSO stock solutions, then transferred and serially diluted in 384-well compound plates (Greiner #784201). Each compound was tested at 10 concentrations in duplicate per experiment. Positive and negative controls for positive allosteric modulator evaluation were 30 μM acetylcholine (Ach) and an EC10-EC30 concentration of acetylcholine, approximately 2 nM but could be adjusted for each experiment to maintain the EC10-EC30 range.
After the 1-hour dye loading incubation, test compounds were added to the cell plate containing Fluo-8. Approximately 10 minutes after compound addition, an EC10-EC30 concentration of acetylcholine was added to each well and the fluorescence measured to determine the PAM potentiation of the compound.
Data was exported from the FLIPR Tetra as maximum fluorescence/minimum fluorescence for each well. The percent effect for each compound well was determined using the mean values for the positive and negative controls on each plate for each read. Percent effect was 100*(compound negative control)/(positive control negative control). Dose response curves were fitted to the compound percent effect data using a 4-parameter logistic fit model to determine PAM (positive allosteric modulator) Inflection Point values. Compounds with inverted U dose response curves had the concentrations greater than the concentration giving the peak response excluded from the fit. Data was reported as Inflection Point. The compounds of Examples 1-72 had activity according to this assay, generally with an Inflection Point (IP) of 10 μM or less (using Inflection Point as a measure of activity). Such a result is indicative of the intrinsic activity of the compounds of the invention as M1 allosteric modulators.
For orientation: A change in cytosolic calcium serves as a functional read-out for many receptors and channels.

On to `Cc1cnc(C(=O)NC2CCCC2O)cc1Cc1ccc(-n2cccn2)cc1` (racemic) [Example 34, N-[trans-2-hydroxycyclopentyl]-5-methyl-4-[4-(1H-pyrazol-1-yl)benzyl]pyridine-2-carboxamide], for which the EC50 was 1.02 µM. For `Cc1cnc(C(=O)NC2CCCC2O)cc1Cc1ccc(-n2cccn2)cc1` (racemic) [Example 49, N-[cis-2-hydroxycyclopentyl]-5-methyl-4-[4-(1H-pyrazol-1-yl)benzyl]pyridine-2-carboxamide] the value was 1.63 µM; for `Cc1nnc(-c2ccc(Cc3cc(C(=O)NC4CCOCC4O)ncc3C)cc2)o1` (single isomer, unassigned) [Example 20], > 9.94 µM. For the compound `Cc1nnc(-c2ccc(Cc3cc(C(=O)NC4CCOCC4O)ncc3C)cc2)o1` (single isomer, unassigned) [Example 21], the EC50 amounted to 1.95 µM. For `Cc1cnc(C(=O)NC2CCCCC2(F)F)cc1Cc1ccc(-n2cccn2)cc1` (single isomer, unassigned) [Example 46] the value was 1.22 µM. For `Cc1cnc(C(=O)NC2CCCCC2(F)F)cc1Cc1ccc(-n2cccn2)cc1` (single isomer, unassigned) [Example 47] the value was 0.57 µM; for `Cc1cnc(C(=O)N[C@H]2CCCC[C@@H]2O)cc1C(F)c1ccc(-n2cccn2)cc1` (single isomer, unassigned) [Example 63], 8.76 µM; for `Cc1cnc(C(=O)N[C@H]2CCCC[C@@H]2O)cc1C(F)c1ccc(-n2cccn2)cc1` (single isomer, unassigned) [Example 64], 0.033 µM. Take `Cc1nc(-c2ccc(Cc3cc(C(=O)NC4CCOCC4O)ncc3C)cc2)co1` (single isomer, unassigned; (+)) [Example 11, (+)-N-[(3,4-trans)-3-Hydroxytetrahydro-2H-pyran-4-yl]-5-methyl-4-[4-(2-methyl-1,3-oxazol-4-yl)benzyl]pyridine-2-carboxamide]: the EC50 was 0.146 µM. The figure for `Cc1cnc(C(=O)NC2CCCCC2O)cc1Cc1ccc(-n2cccn2)cc1` (single isomer, unassigned; (+)) [Example 13, (+)-N-[(1,2-cis)-2-Hydroxycyclohexyl]-5-methyl-4-[4-(1H-pyrazol-1-yl)benzyl]pyridine-2-carboxamide] is 1.46 µM; for `Cc1nc(-c2ccc(Cc3cc(C(=O)NC4CCOCC4O)ncc3C)cc2)co1` (single isomer, unassigned; (-)) [Example 10, (−)-N-[(3,4-trans)-3-Hydroxytetrahydro-2H-pyran-4-yl]-5-methyl-4-[4-(2-methyl-1,3-oxazol-4-yl)benzyl]pyridine-2-carboxamide] it is 6.34 µM; for `Cc1cnc(C(=O)NC2CCCCC2O)cc1Cc1ccc(-n2cccn2)cc1` (single isomer, unassigned; (-)) [Example 12, (−)-N-[(1,2-cis)-2-Hydroxycyclohexyl]-5-methyl-4-[4-(1H-pyrazol-1-yl)benzyl]pyridine-2-carboxamide] it is 0.96 µM. The figure for `Cc1cnc(C(=O)N[C@H]2CCOC[C@@H]2O)cc1C(F)c1ccc(-c2cscn2)cc1` (single isomer, unassigned; diastereomer 1) [Example 59] is 1.83 µM. With `Cc1cnc(C(=O)NC2CCOCC2O)cc1Cc1ccc(-c2cncs2)cc1` (single isomer, unassigned; ent-1) [Example 4, N-[(3,4-trans)-3-Hydroxytetrahydro-2H-pyran-4-yl]-5-methyl-4-[4-(1,3-thiazol-5-yl)benzyl]pyridine-2-carboxamide, ENT-1], the EC50 worked out at 8.11 µM. For `Cc1cnc(C(=O)NC2CCOCC2O)cc1Cc1ccc(-c2cncs2)cc1` (single isomer, unassigned; ent-2) [Example 5, N-[(3,4-trans)-3-Hydroxytetrahydro-2H-pyran-4-yl]-5-methyl-4-[4-(1,3-thiazol-5-yl)benzyl]pyridine-2-carboxamide, ENT-2], the EC50 was 0.18 µM. With `Cc1cnc(C(=O)N[C@H]2CCOC[C@@H]2O)cc1Cc1ccc(-c2cnn(C)c2)cc1F` [Example 2, 4-[2-Fluoro-4-(1-methyl-1H-pyrazol-4-yl)benzyl]-N-[(3R,4S)-3-hydroxytetrahydro-2H-pyran-4-yl]-5-methylpyridine-2-carboxamide], the EC50 was 0.125 µM.

For `Cc1cnc(C(=O)N[C@H]2CCOC[C@@H]2O)cc1Cc1ccc(-c2nccs2)cc1` [Example 3, N-[(3R,4S)-3-Hydroxytetrahydro-2H-pyran-4-yl]-5-methyl-4-[4-(1,3-thiazol-2-yl)benzyl]pyridine-2-carboxamide], the EC50 is 0.101 µM. For `Cc1cnc(C(=O)N[C@H]2CCOC[C@@H]2O)cc1Cc1ccc(-c2ccn(C)n2)cc1` [Example 6, N-[(3R,4S)-3-Hydroxytetrahydro-2H-pyran-4-yl]-5-methyl-4-[4-(1-methyl-1H-pyrazol-3-yl)benzyl]pyridine-2-carboxamide] the value was 0.142 µM. For `Cc1cnc(C(=O)N[C@H]2CCOC[C@@H]2O)cc1Cc1ccc(-c2cscn2)cc1` [Example 7, N-[(3R,4S)-3-Hydroxytetrahydro-2H-pyran-4-yl]-5-methyl-4-[4-(1,3-thiazol-4-yl)benzyl]pyridine-2-carboxamide] the value was 0.06 µM; for `Cc1cnc(C(=O)N[C@@H]2CCOC[C@H]2O)cc1Cc1ccc(-n2cccn2)cc1` [Example 8, N-[(3S,4R)-3-Hydroxytetrahydro-2H-pyran-4-yl]-5-methyl-4-[4-(1H-pyrazol-1-yl)benzyl]pyridine-2-carboxamide], 4.86 µM; for `Cc1cnc(C(=O)N[C@H]2CCOC[C@@H]2O)cc1Cc1ccc(-n2cccn2)cc1` [Example 9, N-[(3R,4S)-3-Hydroxytetrahydro-2H-pyran-4-yl]-5-methyl-4-[4-(1H-pyrazol-1-yl)benzyl]pyridine-2-carboxamide], 0.109 µM. As to `Cc1nc(C(=O)N[C@H]2CCOC[C@@H]2O)cc(Cc2ccc(-n3cccn3)cc2)c1Cl` [Example 14, 5-Chloro-N-[(3R,4S)-3-hydroxytetrahydro-2H-pyran-4-yl]-6-methyl-4-[4-(1H-pyrazol-1-yl)benzyl]pyridine-2-carboxamide], the EC50 was found to be 0.116 µM. For `COc1cnc(C(=O)N[C@H]2CCOC[C@@H]2O)cc1Cc1ccc(-n2cccn2)cc1` [Example 15, N-[(3R,4S)-3-Hydroxytetrahydro-2H-pyran-4-yl]-5-methoxy-4-[4-(1H-pyrazol-1-yl)benzyl]pyridine-2-carboxamide], the EC50 was found to be 0.065 µM. Turning to `Cc1cnc(C(=O)NC[C@@H]2CCCO2)cc1Cc1ccc(-n2cccn2)cc1` [Example 16, 5-Methyl-4-[4-(1H-pyrazol-1-yl)benzyl]-N-[(2S)-tetrahydrofuran-2-ylmethyl]pyridine-2-carboxamide, formate salt], the EC50 was 1.82 µM. Consider `Cc1nc(C(=O)N[C@H]2CCCC[C@@H]2O)cc(Cc2ccc(-n3cccn3)cc2)c1Cl` [Example 17, 5-Chloro-N-[(1S,2S)-2-hydroxycyclohexyl]-6-methyl-4-[4-(1H-pyrazol-1-yl)benzyl]pyridine-2-carboxamide], for which the EC50 turned out to be 0.191 µM. For `Cc1cnc(C(=O)N[C@H]2CCCC[C@@H]2O)cc1Cc1ccc(-n2cccn2)cc1` [Example 18, N-[(1S,2S)-2-Hydroxycyclohexyl]-5-methyl-4-[4-(1H-pyrazol-1-yl)benzyl]pyridine-2-carboxamide] the value was 0.092 µM.
